Assay results from patent US20150004262A1, “ANESTHETIC AND THERAPEUTIC COMPOSITION FOR USE IN AQUACULTURE” (priority 2012, published 2015).

What was measured:
[1] = Experiment 8: oil residues in fish fillet tissue, sobaity; design: species or system Sparidentex hasta; conditions: in vivo
From the text: (§1) Thyme oil consists mainly of thymol. On the other hand, oregano oil consists mainly of carvacrol (40-70%) and thymol, while cinnamon oil consists mainly of (65 to 75% of the oil) is cinnamaldehyde.

[2] = Experiment 8: oil residues in fish fillet tissue, sheam; design: species or system Acanthopagrus latus; conditions: in vivo
From the text: as §1

[3] = test system: serum MDA (TBARS); assay: Serum TBARS assay, sheam; assay type: in vivo, Acanthopagrus latus
From the text: (§2) C. Thiobarbituric Acid Reactive Substances (TRARS) Assay.

[4] = test system: serum MDA (TBARS); assay: Serum TBARS assay, sobaity; assay type: in vivo, Sparidentex hasta
From the text: as §2

| Molecule | residue in fillet tissue [1] | residue in fillet tissue [2] | MDA [3] | Relative Activity (RA) in comparison to control serum [3] | MDA [4] | Relative Activity (RA) in comparison to control serum [4] |
| --- | --- | --- | --- | --- | --- | --- |
| cinnamon oil (Cinnamomum zeylanicum) | 0.52 ppm/fish | 0.17 ppm/fish |  |  |  |  |
| Cc1ccc2ccccc2n1 [Quinaldene, quinaldine] |  |  | 0.0410 ± 0.002 nmol/mL | 89.13 | 0.0365 ± 0.003 nmol/mL | 79.27 |
